Measured values as given in patent US20260166162A1, “CARBON CHAIN SUBSTANCE FOR REGULATING TRANSMEMBRANE TRANSPORT AND FLUIDITY OF CELL MEMBRANES, AND PREPARATION AND USE THEREOF” (priority 2022, published 2026).

Columns and labels:
293T cells = experiment: Cellular phagocytosis of DiD-loaded lipid vesicles (nano-drugs) by 293T cells (Example II-51, Table II-29); type: cell-based; conditions: 293T cells pretreated 4 h, DiD lipid vesicles 2 h, n=3, untreated control 226.46 ± 1.26
Hela cells = experiment: Cell membrane fluidity (Laurdan fluorescence recovery) in Hela cells; type: cell-based

## CCCCCC(=O)O [Hexanoic acid]
293T cells; 2 nM
  Fluorescence intensity: 131.26 ± 11.25
293T cells; 5 nM
  Fluorescence intensity: 114.00 ± 14.2
293T cells; 10 nM
  Fluorescence intensity: 94.34 ± 4.25
293T cells; 50 nM
  Fluorescence intensity: 96.63 ± 6.32
293T cells; 100 nM
  Fluorescence intensity: 30.71 ± 1.25
293T cells; 1 uM
  Fluorescence intensity: 102.07 ± 12.2
293T cells; 10 uM
  Fluorescence intensity: 125.10 ± 12.55
293T cells; 50 uM
  Fluorescence intensity: 288.42 ± 8.32
293T cells; 100 uM
  Fluorescence intensity: 325.58 ± 15.26

## CCCCCCCCCCCC(=O)NCCCCC(N)C(=O)O (stereo not drawn) [Lys-C12]
293T cells; 2 nM
  Fluorescence intensity: 175.30 ± 15.23
293T cells; 5 nM
  Fluorescence intensity: 103.11 ± 10.33
293T cells; 10 nM
  Fluorescence intensity: 49.05 ± 5.26
293T cells; 50 nM
  Fluorescence intensity: 24.16 ± 3.36
293T cells; 100 nM
  Fluorescence intensity: 25.45 ± 5.22
293T cells; 1 uM
  Fluorescence intensity: 367.61 ± 27.11
293T cells; 10 uM
  Fluorescence intensity: 417.28 ± 17.23
293T cells; 50 uM
  Fluorescence intensity: 110.76 ± 8.54
293T cells; 100 uM
  Fluorescence intensity: 104.90 ± 6.23

## CCCCCCCCCCCCCCCCCCCCCCCC(=O)OC(C)C(N)C(=O)O (stereo not drawn) [Threonine-C24]
293T cells; 2 nM
  Fluorescence intensity: 39.09 ± 7.89
293T cells; 5 nM
  Fluorescence intensity: 38.29 ± 5.26
293T cells; 10 nM
  Fluorescence intensity: 22.90 ± 1.22
293T cells; 50 nM
  Fluorescence intensity: 12.84 ± 2.22
293T cells; 100 nM
  Fluorescence intensity: 14.81 ± 1.33
293T cells; 1 uM
  Fluorescence intensity: 435.55 ± 15.26
293T cells; 10 uM
  Fluorescence intensity: 416.78 ± 12.33
293T cells; 50 uM
  Fluorescence intensity: 46.51 ± 5.21
293T cells; 100 uM
  Fluorescence intensity: 30.64 ± 5.55

## CCCCCC/C=C\CCCCCCCC(=O)OC(C)C(N)C(=O)O (stereo not drawn) [Threonine-cis-9-hexadecanoic acid]
293T cells; 2 nM
  Fluorescence intensity: 142.94
293T cells; 5 nM
  Fluorescence intensity: 67.71 ± 5.67
293T cells; 10 nM
  Fluorescence intensity: 64.00 ± 4.06
293T cells; 50 nM
  Fluorescence intensity: 74.71 ± 5.36
293T cells; 100 nM
  Fluorescence intensity: 56.71 ± 6.74
293T cells; 1 uM
  Fluorescence intensity: 153.25 ± 13.25
293T cells; 10 uM
  Fluorescence intensity: 126.64 ± 11.02
293T cells; 50 uM
  Fluorescence intensity: 37.23 ± 2.35
293T cells; 100 uM
  Fluorescence intensity: 61.12 ± 5.21

## CCCCCCCC/C=C\CCCCCCCC(=O)OCCOCC(OCCO)C1OCC(OCCO)C1OCCO (stereo not drawn) [Tween-80]
293T cells; 2 nM
  Fluorescence intensity: 45.04
293T cells; 5 nM
  Fluorescence intensity: 32.41
293T cells; 10 nM
  Fluorescence intensity: 21.85
293T cells; 50 nM
  Fluorescence intensity: 17.28
293T cells; 100 nM
  Fluorescence intensity: 11.89
293T cells; 1 uM
  Fluorescence intensity: 152.11
293T cells; 10 uM
  Fluorescence intensity: 103.58
293T cells; 50 uM
  Fluorescence intensity: 18.48
293T cells; 100 uM
  Fluorescence intensity: 13.34 ± 3.24

## O=C(O)CCCCCCCCCC(=O)OCC(O)C1OC(=O)C(O)=C1O (stereo not drawn) [VC-undecanedioic acid]
293T cells; 2 nM
  Fluorescence intensity: 121.02
293T cells; 5 nM
  Fluorescence intensity: 92.26
293T cells; 10 nM
  Fluorescence intensity: 78.76 ± 7.89
293T cells; 50 nM
  Fluorescence intensity: 87.57 ± 5.57
293T cells; 100 nM
  Fluorescence intensity: 96.31 ± 6.21
293T cells; 1 uM
  Fluorescence intensity: 199.22 ± 19.26
293T cells; 10 uM
  Fluorescence intensity: 217.49 ± 14.22
293T cells; 50 uM
  Fluorescence intensity: 106.96 ± 5.64
293T cells; 100 uM
  Fluorescence intensity: 110.44 ± 9.87

## CCCCCCCCC=CCCCCCCCC(=O)OCC(O)C1OC(=O)C(O)=C1O (stereo not drawn) [Vc-oleic acid]
Hela cells; 2 nM, 20 s
  Fluorescence recovery rate %: 61.48%
Hela cells; 2 nM, 40 s
  Fluorescence recovery rate %: 62.33%
Hela cells; 2 nM, 60 s
  Fluorescence recovery rate %: 63.41%
Hela cells; 2 nM, 80 s
  Fluorescence recovery rate %: 64.57%
Hela cells; 5 nM, 20 s
  Fluorescence recovery rate %: 61.87%
Hela cells; 5 nM, 40 s
  Fluorescence recovery rate %: 62.99%
Hela cells; 5 nM, 60 s
  Fluorescence recovery rate %: 63.47%
Hela cells; 5 nM, 80 s
  Fluorescence recovery rate %: 63.21%
Hela cells; 10 nM, 20 s
  Fluorescence recovery rate %: 63.72%
Hela cells; 10 nM, 40 s
  Fluorescence recovery rate %: 63.75%
Hela cells; 10 nM, 60 s
  Fluorescence recovery rate %: 64.67%
Hela cells; 10 nM, 80 s
  Fluorescence recovery rate %: 65.92%
Hela cells; 50 nM, 20 s
  Fluorescence recovery rate %: 62.43%
Hela cells; 50 nM, 40 s
  Fluorescence recovery rate %: 62.62%
Hela cells; 50 nM, 60 s
  Fluorescence recovery rate %: 63.37%
Hela cells; 50 nM, 80 s
  Fluorescence recovery rate %: 64.24%
Hela cells; 50 μM, 20 s
  Fluorescence recovery rate %: 62.54%
Hela cells; 50 μM, 40 s
  Fluorescence recovery rate %: 67.11%
Hela cells; 50 μM, 60 s
  Fluorescence recovery rate %: 74.55%
Hela cells; 50 μM, 80 s
  Fluorescence recovery rate %: 76.57%
Hela cells; 100 μM, 20 s
  Fluorescence recovery rate %: 61.66%
Hela cells; 100 μM, 40 s
  Fluorescence recovery rate %: 73.65%
Hela cells; 100 μM, 60 s
  Fluorescence recovery rate %: 77.32%
Hela cells; 100 μM, 80 s
  Fluorescence recovery rate %: 78.61%

## adenosine monophosphate-linoleic acid
Hela cells; 2 nM, 20 s
  Fluorescence recovery rate %: 62.11%
Hela cells; 2 nM, 40 s
  Fluorescence recovery rate %: 62.98%
Hela cells; 2 nM, 60 s
  Fluorescence recovery rate %: 64.26%
Hela cells; 2 nM, 80 s
  Fluorescence recovery rate %: 68.17%
Hela cells; 5 nM, 20 s
  Fluorescence recovery rate %: 63.44%
Hela cells; 5 nM, 40 s
  Fluorescence recovery rate %: 64.22%
Hela cells; 5 nM, 60 s
  Fluorescence recovery rate %: 65.78%
Hela cells; 5 nM, 80 s
  Fluorescence recovery rate %: 66.39%
Hela cells; 10 nM, 20 s
  Fluorescence recovery rate %: 63.22%
Hela cells; 10 nM, 40 s
  Fluorescence recovery rate %: 63.48%
Hela cells; 10 nM, 60 s
  Fluorescence recovery rate %: 64.42%
Hela cells; 10 nM, 80 s
  Fluorescence recovery rate %: 65.93%
Hela cells; 50 nM, 20 s
  Fluorescence recovery rate %: 64.25%
Hela cells; 50 nM, 40 s
  Fluorescence recovery rate %: 64.66%
Hela cells; 50 nM, 60 s
  Fluorescence recovery rate %: 65.33%
Hela cells; 50 nM, 80 s
  Fluorescence recovery rate %: 66.23%
Hela cells; 50 μM, 20 s
  Fluorescence recovery rate %: 64.44%
Hela cells; 50 μM, 40 s
  Fluorescence recovery rate %: 70.73%
Hela cells; 50 μM, 60 s
  Fluorescence recovery rate %: 74.64%
Hela cells; 50 μM, 80 s
  Fluorescence recovery rate %: 80.57%
Hela cells; 100 μM, 20 s
  Fluorescence recovery rate %: 63.22%
Hela cells; 100 μM, 40 s
  Fluorescence recovery rate %: 67.48%
Hela cells; 100 μM, 60 s
  Fluorescence recovery rate %: 75.42%
Hela cells; 100 μM, 80 s
  Fluorescence recovery rate %: 79.93%
